pEC50: −log10 of the molar value.
Tests used:
[1] = test system: replicon resistant to 10 μM Compound #64 vs wild type Huh-7 Luc-ubi-neo/ET replicon; assay: Cross resistance of Compound #64 resistant replicon; type: cell-based, HCV genotype 1b; conditions: for EC50 Resistant Replicon/EC50 Wild Type Replicon: replicon resistant to 10 μM Compound #64 vs wild type Huh-7 Luc-ubi-neo/ET replicon
[2] = test system: HCV genotype 1b replicon (Huh-Luc-Neo cells); assay: HCV Replicon Luciferase Assay; type: cell-based; conditions: Hepatitis C virus; Huh-Luc-Neo cells, genotype 1b, 72 h; read-out: HCV-1b Replicon Inhibition*, Luciferase (EC50)
[3] = test system: HCV genotype 1b replicon (Huh-Luc-Neo cells); assay: HCV Replicon RNA (Taqman) Assay, genotype 1b; type: cell-based; conditions: Hepatitis C virus; Huh-Luc-Neo cells, genotype 1b, HCV RNA, 72 h; read-out: HCV-1b Replicon Inhibition*, Taqman (EC50)
[4] = Cell Titer-Glo Cell Viability Assay, genotype 1b cells; type: cell-based; conditions: human, Huh-Luc-Neo (HCV genotype 1b replicon) cells, HCV genotype 1b assays, read-out: Cytotoxicity* (CC50)
Outline: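 Huh-Luc-Neo (genotype 1b) or En5-3/Htat2ANeo (genotype 1a) cells, 5000-7000/well in phenol red-free DMEM, treated with 8-9 compound concentrations for 72 h at 37° C, 5% CO2. Viability read by CellTiter-Glo luminescence after 5 min shaking at room temperature.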

[5] = test system: Compound #64 resistant HCV 1b replicon cell lines vs wild type Huh-Luc-Neo replicon; assay: EC50 determination (HCV RNA, quantitative PCR) in resistant vs wild type replicon clones; type: cell-based, HCV genotype 1b
Protocol: An HCV Replicon cell line (luc-neo/ET) and assay (Lohman et al, Science 1999, 285, 110) was used in the present invention. Specifically the HCV 1b Replicon cell line Huh-Luc-Neo was subjected to resistance selection by growth in culture in the presence of Compound #64 (Table 1) according to methods described by Mo et al., Antimicro. Agents Chemotherapy, 49, 4305-4314, 2005. Huh-Luc-Neo cells were initially subjected to selection with 0.5 μM Compound #64 (Table 1) and selection pressure was increased gradually up to 2 μM COMPOUND #64 (TABLE 1) over a period of 7 to 9 weeks and 5 cell lines derived from individual colonies were isolated and expanded. A specific clone resistant to 2 μM Compound #64 (Table 1) (Clone Comp.64-10R4) was the subjected to further selection pressure at increasing concentrations of Compound #64 (Table 1) and a replicon resistant to 10 μM Compound #64 (Table 1) was isolated (Clone Comp.64-50R4). The wild type Huh-Luc-Neo replicon cell line was cultured in parallel with the selections and characterized in a similar fashion to the resistant clones.
(§1) EC50 determinations were performed with Compound #64 (Table 1) vs. the wild type Huh-Luc-Neo replicon cell line and the 5 resistant replicon cell lines. Resistant and wild type replicons were plated in 96 well plates (5000-7000 cells/well) and treated with compound at varying concentrations (Compound #64 (Table 1)) for 72 hours. Cells were then lysed and RNA was isolated (Qiagen RNA Easy 96 kit) according to the manufacturer's recommendations. HCV RNA levels were then measured and EC50 values were determined by cDNA synthesis and quantitative PCR using HCV specific primers and GAPDH primers as controls (Example 55, Lohman et al, Science 1999, 285, 110). The effect of the compounds on inhibition of cell viability was performed on cells treated in parallel with using the Cell Titre Glo Assay Kit (Promega) according to the manufacturer's recommendations (Example 56). CC50s for the compound vs. the wild type and resistant replicons were determined to be >50 μM.

[6] = Cell Titre Glo cell viability on wild type and resistant replicons; type: cell-based; conditions: human
Protocol: as §1

[7] = test system: HCV Genotype 1b luc-neo/ET replicon with Y2065H mutation in NS5A; assay: Luciferase EC50 in Huh7-Lunet cells with luc-neo/ET/Y2065H mutant vs parental luc-neo/ET replicon; type: cell-based; conditions: transient replicons, 72 h
Protocol: Resistance of Compound #64 (Table 1) and related pyrazoles was then determined by treating Huh7-Lunet cells (Koutsoudakis et al, J. Virol. 81(2):588-98, 2007) transiently electroporated with RNAs transcribed from either the luc-neo/ET/Y2065H mutant and the parental luc-neo/ET replicons (Blight et al, J. Virol. 77(5):3181-90, 2003). Huh7-Lunet expressing the luc-neo/ET/Y2065H mutant and the parental luc-neo/ET replicons were treated with selected compounds for 72 hours. EC50 and CC50 values were determined as described in the HCV Replicon Luciferase Assay and CellTiter-Glo Cell Viability Assay protocols. […] CC50s for the compound vs. the luc-neo/ETIY2065H mutant and parental luc-neo/ET replicons were determined to be>33 μM.

| Compound | EC50 Resistant Replicon/EC50 Wild Type Replicon [1] | cross resistance in Compound #64 resistant replicon ([1]; replicon resistant to 10 μM Compound #64) | pEC50 [2] | pEC50 [3] | CC50 at 72 h [4] | EC50 shift, resistant replicon vs wild type replicon ([5]; replicon resistant to 10 μM Compound #64, second NS5A mutation Y2065H) | EC50 Resistant Replicon/EC50 Wild Type Replicon ([5]; resistant clone Comp. 64-10R3, resistant conc. 2 μM) | EC50 Resistant Replicon/EC50 Wild Type Replicon ([5]; resistant clone Comp. 64-10R4, resistant conc. 2 μM) | EC50 Resistant Replicon/EC50 Wild Type Replicon ([5]; resistant clone Comp. 64-10R5, resistant conc. 2 μM) | EC50 Resistant Replicon/EC50 Wild Type Replicon ([5]; resistant clone Comp. 64-10R6, resistant conc. 2 μM) | EC50 Resistant Replicon/EC50 Wild Type Replicon ([5]; resistant clone Comp. 64-10R8, resistant conc. 2 μM) | EC50 Resistant Replicon/EC50 Wild Type Replicon ([5]; resistant clone Comp. 64-50R4, resistant conc. 10 μM) | CC50 at 72 h [6] | EC50 Luc-neo-ET-Y2065H/EC50 Luc-neo-ET [7] |
| --- | --- | --- | --- | --- | --- | --- | --- | --- | --- | --- | --- | --- | --- | --- |
| COc1ccc2c(O[C@@H]3C[C@H]4C(=O)N[C@]5(C(=O)O)C[C@H]5/C=C\CCCCC[C@H](NC(=O)OC5CCCC5)C(=O)N4C3)cc(-c3csc(NC(C)C)n3)nc2c1 [BILN 2061, reference compound] | 0.656 |  |  |  |  |  |  |  |  |  |  |  |  |  |
| Cc1ccc(O)c(-c2nn(C)cc2C#Cc2ccc(NC(=O)[C@@H]3COCCN3C(=O)[C@H](NC(=O)OC(C)(C)C)c3ccccc3)cc2)c1 | 7.125 | cross resistant |  |  |  |  |  |  |  |  |  |  |  |  |
| Cc1ccc(O)c(-c2nn(C)cc2C#Cc2ccc(NC(=O)[C@H]3CCCCN3C(=O)C(NC(=O)OC(C)(C)C)c3ccccc3)cc2)c1 (stereo partly drawn) [64 (Table 1)] |  |  | > 6.00 | > 6.00 | > 100 µM | > 75 fold | 1.5 | 3.48 | 2.92 | 2.18 | 3 | >75 | > 50 µM | >65 |
